Results taken from the METLIN SMRT retention time set (Domingo-Almenara et al. 2019).

Experiment: gradient 5% acetonitrile 3 min, to 50% in 2 min, to 85% in 15 min, held 3 min, 100 µL/min
Conditions: column: Zorbax Extend-C18 2.1 x 50 mm; eluents: water / acetonitrile, 0.1% formic acid
Procedure, shortened: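 Values are retention times taken from adduct peaks that software picked and an analyst inspected. The pure standards were run as mixtures of ~100 molecules on HPLC linked to a quadrupole time-of-flight mass spectrometer, in positive and negative ionization mode. A Zorbax Extend-C18 column (2.1 × 50 mm, 1.8 μm) was used at 100 μL/min with water and acetonitrile, each including 0.1% formic acid.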

Structure (SMILES) | RP-LC retention time [s]
COCCNC(=O)N1CCCN(C2=NS(=O)(=O)C(c3ccc(C)c(C)c3)=C2C)CC1 | 738
CCOC(=O)c1c(S(=O)(=O)N2CCC(C(=O)Nc3ccc(CC)cc3)CC2)c(C)n(C)c1C | 943
CCCC(CCC)C(=O)NCCc1c[nH]c2ccc(C)cc12 | 996
Cn1c(CCCC(=O)O)nc2cc(N(CCCl)CCCl)ccc21 | 747
COc1ccc(N2CCN(C(=O)Cn3cccc3-c3nnc(-c4ccccc4)o3)CC2)cc1 | 907
CC(C)NC(=O)Cn1cccc(-c2nc(-c3ccc(Br)cc3)no2)c1=O | 824
COc1ccc(-c2cc(C(=O)N3CCN(c4ccc(N5CCOCC5)nn4)CC3)[nH]n2)cc1 | 625
CCC(=O)NCc1nc2c(n1C)CN(S(=O)(=O)c1c(C)c(C)cc(C)c1C)CC2 | 556
Cn1cccc1C(=O)N1CC(Oc2ccc(-c3nc(-c4ccccc4)no3)cc2)C1 | 1170
CC(C)(C)NC(=O)NC1CCN(C(=O)c2ccccc2)C1 (centres undefined) | 683
COc1ccc(/C=C2\COc3ccc(C)cc3C2=O)cc1O | 1050
Cc1ccccc1CNC(=O)c1ccc2c(c1)Sc1ncccc1C(=O)N2C | 789
CCOCCCNC(=O)CCC(=O)N1CC2CCCN2c2ccccc21 (centres undefined) | 729
CCCCOc1ccc(CNC(=O)C2CCN(Cc3cn(C)c4ccc(OC)cc34)CC2)cc1 | 804
CN(c1nc2ccccc2s1)C1CCN(C[C@H](O)COc2ccc(F)c(F)c2)CC1 | 777
Cc1ccc(-c2ccc(S(=O)(=O)N3CCCC3)cc2)cc1 | 1070
Cc1noc(-c2nc(-c3ccc(Cl)c(F)c3)no2)n1 | 1090
CCOC(=O)c1c(S(=O)(=O)NCCN2CCc3ccccc3C2)c(C)n(C)c1C | 675
O=C(NCCc1ccccc1)c1nc(Cn2c(=O)oc3ccccc32)no1 | 888
COc1cccc(-c2ccc(=O)n(Cc3nc(-c4ccc(F)cc4)no3)n2)c1 | 984

Structure (SMILES) | RP-LC retention time [s]
CCCNc1cc(N2CCCC(CCC(=O)N3CCN(CC(C)C)CC3)C2)ncn1 (centres undefined) | 552
Cc1ccc(-c2csc(NC(=O)CCCOc3ccccc3C)n2)cc1 | 1300
CC1CCc2c(sc(NC(=O)Cc3ccc4c(c3)OCO4)c2C#N)C1 (centres undefined) | 1070
COCCn1c(=O)c2cc(C(=O)Nc3ccccc3)nn2c2ccccc21 | 714
COc1ccc2[nH]cc(CCN3CC(C(=O)Nc4cccc(C)c4C)CC3=O)c2c1 (centres undefined) | 771
Cn1nccc1-c1csc(S(=O)(=O)NC2CC2)c1 | 713
Cc1cnc(C2CC2)n1CCNS(=O)(=O)c1ccccc1C(F)(F)F | 569
COc1ccc(Cn2c(=O)c3sccc3n(Cc3nc(-c4cccc(C)c4)no3)c2=O)cc1 | 1160
C[C@H]1CN(C(=O)c2ccc(C#N)cc2)C[C@@H]1c1nc(-c2cccnc2)no1 | 717
O=C(NC1CC1)c1ccc(CN2CCN(Cc3ccccc3)C(=O)C2=O)cc1 | 1240
CC1CCN(S(=O)(=O)c2cc(-c3ccc(N4CCCC(C)C4)nn3)cs2)CC1 (centres undefined) | 915
O=C(NCCS(=O)(=O)N1CCN(c2ccccc2)CC1)c1ccc(Br)o1 | 807
Brc1ccc2nc(-c3ccccc3)c(Nc3ccc4c(c3)OCO4)n2c1 | 748
Cc1nc2cc(-c3noc(-c4ccc5c(c4)OCO5)n3)ccc2o1 | 1050
O=c1c2cc(-c3ccc(F)cc3)nn2cnn1Cc1nc(-c2ccccc2Cl)no1 | 1110
Cc1cc(N(C)C)n2nc(CN3CCN(c4ccccc4C)CC3)nc2n1 | 633
Cc1ccc(S(=O)(=O)N2CCN(C3=CC4=NC(C)CN4C=N3)CC2)cc1C (centres undefined) | 698
Fc1ccc(-c2nnc(-c3ccc(-n4ccnc4)nc3)o2)cc1 | 648
O=C(Nc1nc(-c2ccc3ccccc3c2)cs1)c1cccc(Cn2cc(Cl)cn2)c1 | 1140
CC(=O)N1c2ccc(S(=O)(=O)N(C)CC(=O)N3CCN(c4ccccn4)CC3)cc2CC1C (centres undefined) | 590

Structure (SMILES) | RP-LC retention time [s]
Cc1ccc(NC(=O)c2cc(C(C)C)n3nccc3n2)c(C)c1 | 1200
O=C(Cc1cccs1)Nc1ccc(Nc2ccc(-n3cccn3)nn2)cc1 | 708
Cc1ccn2cc(-c3ccc(NC(=O)c4ccco4)cc3)nc2n1 | 596
CCc1noc([C@@H]2CC(F)(F)CN2C(=O)CCn2ccnc2)n1 | 590
O=C1OCC/C1=C\c1ccc(O)cc1 | 711
CCOc1ccc(-c2noc(Cn3ccnc3)n2)cc1 | 635
CC(C)CC(=O)N1CC(F)(F)C[C@H]1c1nnc(-c2cnccn2)o1 | 703
COc1ccc(CNC(=O)NCC2(c3ccc(F)cc3)CC2)cc1 | 817
CC(=O)N1CCc2cc(N3CC(C(=O)N(C)Cc4ccccc4)CC3=O)ccc21 (centres undefined) | 697
O=C(Cn1cccc(-c2nc(-c3ccc(F)cc3)no2)c1=O)Nc1ccc2c(c1)OCCO2 | 832
COc1ccc(-c2nnc(SCc3cc(=O)n4ccsc4n3)o2)cc1OC | 700
COc1ccccc1CNc1c(-c2nc(C(C)C)no2)cnc2nc(C)ccc12 | 797
COc1ccc(CCNc2nc(N3CCc4cc(OC)c(OC)cc4C3)c3cc(OC)c(OC)cc3n2)cc1OC | 833
Cc1cc(S(=O)(=O)N2CCCC2c2nc(-c3ccc(Cl)cc3)no2)ccc1F (centres undefined) | 1240
O=C(CSc1ccc(F)cc1)NCC1(CO)CC1 | 629
CC(C)c1cc(-c2nnc3sc(COc4ccc(Cl)cc4)nn23)n[nH]1 | 900
Cc1ccccc1C(=O)N1CCN(S(=O)(=O)c2cc3c4c(c2)CCC(=O)N4CCC3)CC1 | 785
Cc1cc2nn(CC(=O)NCc3ccc4c(c3)OCO4)c(=O)n2c(-c2ccccc2)n1 | 600
CCN1C(=O)COc2ccc(-c3nc(NC(=O)c4ccco4)sc3C)cc21 | 883
CN1CCN(CCNC(=O)CCCn2c(=O)c3cccn3c3ccc(F)cc32)CC1 | 588

The next lines start with the values.

RP-LC retention time [s] | Structure (SMILES)
653 | CCOC(=O)c1ccc(Nc2c(C(=O)N3CCCCC3C)cnc3nc(C)ccc23)cc1 (centres undefined)
710 | CCC(C)NC(=O)CC1CCN(C(=O)c2ccc3oc(C4CC4)nc3c2)CC1 (centres undefined)
695 | Cc1nc2cc(N3CCC(C(=O)Nc4ccc5c(c4)OCO5)CC3)cnc2nc1C
566 | COC(=O)CNC(=O)N(C)Cc1nc2cc(C(=O)N3CCCC3)ccc2n1C
842 | COc1ccc(NC(=O)c2cn(-c3cc(N(C)C)ncn3)cn2)c(OC)c1
764 | CC(=O)Nc1ccc(S(=O)(=O)N2CC=C(c3cn(C)c4ncccc34)CC2)cc1
821 | COc1ccc(NC(=O)NC2CCN(c3ccc(C)c(C)c3)C2=O)cc1 (centres undefined)
595 | CN(C)C[C@@H]1CN(c2ccncn2)C[C@H]1NC(=O)c1ccc2ccccc2n1
664 | O=C(Nc1ccc2c(N3CCCCC3)ncnc2c1)c1cncc(Br)c1
611 | Cc1ccc(NC(=O)C2(Cc3cccnc3)CCCCC(=O)N2)cc1 (centres undefined)
758 | Cc1cc(F)ccc1NC(=O)C1CC(=O)N(c2ccc3c(c2)CCN3C(=O)C2CC2)C1 (centres undefined)
876 | COc1cccc(C(=O)NC2CCN(c3cc(C)cc(C)c3)C2=O)c1 (centres undefined)
580 | COCCNC(=O)C1CCN(c2cnc(N3CCCC3)nc2)CC1
555 | O=C(NCC(=O)N1CCn2c1nc1ccccc12)c1ccc(=O)[nH]c1
836 | Cc1nnc(-c2cc(C)n(CC(=O)Nc3ccc(Br)cc3)c2C)o1
1370 | COc1ccc(-n2c(=O)c(C(=O)Nc3ccc(F)c(Cl)c3)c(O)c3cccnc32)cc1
555 | CCn1nccc1C(=O)N1CCC(c2nc3ccncc3n2CC(C)C)C1 (centres undefined)
711 | COc1ccccc1N1CCN(C(=O)C2CCCN(c3nccc4sc(C)cc34)C2)CC1 (centres undefined)
696 | CCOc1ccccc1NC(=O)Cn1cnc2nc(N3CCC(C(=O)NC4CC4)CC3)sc2c1=O
784 | CSc1cccc(NC(=O)C2CCN(S(=O)(=O)c3ccc4[nH]c(=O)ccc4c3)CC2)c1
855 | CCC(=O)N1CCc2cc(-c3ccc(C(=O)N4CCN(c5ncccn5)CC4)cc3)ccc21
643 | CCOC(=O)c1c(C)n(C)c2ccc(OCC(O)CN3CCCCC3)cc12 (centres undefined)
959 | COc1ccc(-c2nnc(COc3cccc(NC(=O)C4CCCC4)c3)o2)cc1
785 | CCc1nc2cc(N3CCCC(C(=O)NC4CCCC4)C3)cnc2nc1CC (centres undefined)
584 | Cc1cc(Cl)ccc1NC(=O)N1CCCC1c1nnc2n1CCN(C)CC2 (centres undefined)
868 | O=C(Cn1nc2c3sc(N4CCCCC4)nc3ncn2c1=O)Nc1ccc(Cl)cc1F
664 | CC1CN2C=NC(N3CCN(C(=O)Nc4ccc(F)cc4F)CC3)=CC2=N1 (centres undefined)
566 | O=C(NCCN1CCOCC1)c1ccc(-c2ccc(N3CCCCCC3)nc2)cc1
743 | O=C(Nc1ccc(C(=O)N2CCOCC2)c(N2CCCCCC2)c1)C1CC1
